{"source": "patent US20240181121A1", "about": "“A WOUND CARE PRODUCT COMPRISING AN ANTIMICROBIAL COATING” (Mölnlycke Health Care AB, priority 2021, published 2024)", "key": {"[1]": {"assay": "Rate of dissolution of antimicrobial coating in water, LC-MS", "type": "physicochemical", "conditions": "2 ml water; sterilized coated wound contact layer", "method": "The comparison was made between prototypes spray coated with an antimicrobial solution of chlorhexidine phosphate (0.56% by weight) and prototypes spray coated with an antimicrobial solution of chlorhexidine acetate (0.68% by weight). The spray coating was performed with the same parameters and on the same equipment, as described with respect to Example 1 and 2 hereinbefore. After spraying, the samples were sent to sterilization on production site to undergo typical sterilization cycle required for antimicrobial products. […] Triplicates of silicone coated films (wound contact layers) and release liners were separated and placed in wells in contact with 2 ml solution of water during 3 hours, then removed and placed in a new well for 24 hours in order to evaluate instant (>3 h) and short (>24 h) term dissolution. After calibration of the equipment against the solutions of interest, the concentration of CHP and CHAc in the different wells was evaluated by Liquid chromatography-mass spectrometry in order to quantify the amount of antimicrobial coating that was able to dissolve instantly or shortly."}, "[2]": {"system": "Candida albicans ATCC 10231", "assay": "Minimum bactericidal concentration (MBC) in solution, simulated wound fluid", "type": "cell-based", "conditions": "for MBC: Candida albicans, simulated wound fluid, 48 h", "method": "(§1) Test organisms: P. aeruginosa ATCC 9027 (bacteria), S. aureus ATCC 6538 (bacteria), C. albicans ATCC 10231 (fungi), P. aeruginosa ATCC PAO1 (bacteria, example 1b).\n(§2) Test time: 24 h for bacteria and 48 h for fungi\n(§3) Start inoculum: 1×10^6 CFU/ml for bacteria, 4×10^6 CFU/ml for fungi.\n(§4) Tests were performed in solution to compare the potency of silver sulfate, chlorhexidine phosphate and chlorhexidine gluconate, using simulated wound fluid, SWF (fetal bovine serum (FBS) and Peptone Water (PW) mixed in equal proportions, which correspond to the protein and electrolyte concentration of wound exudates (Emiko Aiba-Kojima, M D et. al Wound Rep Reg (2007) 15 511-520; Trengove, N et al Wound Rep Reg (1996) 4 1067-1927)) as test medium. The aim was to define the lowest concentration of an antimicrobial agent required to kill the specific microorganism. The test microorganisms were suspended in SWF, in which antimicrobial substances were added at different concentration before subculture in well microtiter plates."}, "[3]": {"system": "P. aeruginosa (ATCC 9027)", "assay": "Minimum bactericidal concentration (MBC) in solution, simulated wound fluid", "type": "cell-based", "method": "as §1, §2, §3, §4"}, "S. aureus ATCC 6538": {"system": "S. aureus ATCC 6538", "assay": "Minimum bactericidal concentration (MBC) in solution, simulated wound fluid", "type": "cell-based", "method": "as §1, §2, §3, §4"}, "Staphylococcus aureus": {"system": "Staphylococcus aureus", "conditions": "prototype coated with 75 μg/cm^2; sterilized; 2 ml SWF", "method": "as §1, §2, §3"}, "[4]": {"system": "Pseudomonas aeruginosa PAO1 biofilms", "assay": "Reduction of biofilm counts in contact with CHP solution (collagen matrix, SWF)", "type": "cell-based", "conditions": "for Log count / Log reduction: biofilm, 24 h", "method": "Tests were performed in solution to evaluate the potency of chlorhexidine phosphate (CHP) against biofilms cultured on a collagen matrix, using SWF as test medium. The aim was to define if concentrations of CHP that can be spray coated on the surface of the silicone contact layer would have an impact on the biofilms. The test microorganism was Pseudomonas aeruginosa PAO1, suspended in a SWF solution, and placed on a collagen matrix in wells of 24-well plates. The well plates were incubated at 37° C., 95% relative humidity for 24 h to induce formation of biofilms. After incubation and formation of biofilms, the antimicrobial substance CHP was added on top of biofilms at different concentrations in triplicates and were incubated for another 24 h at 37° C., 95% relative humidity. […] The number of viable counts were determined by plating on PetriFilms."}, "[5]": {"system": "all microorganism (same microorganisms as used in Example 1a)", "assay": "Antimicrobial effect of coating sprayed on silicone wound contact layer", "type": "cell-based, S. aureus, P. aeruginosa, C. albicans", "conditions": "sterilized, 2 ml SWF", "experimental": "The prototypes were punched into disks of 7 cm^2 and placed in a well in contact with 2 ml SWF containing a solution of microorganism in suspension (same microorganisms as used in Example 1a). The wound contact layer used in the tests comprised a polyurethane film coated with 200 gsm of a silicone adhesive.\nMicroorganism growth was evaluated on the silicone layer; i.e. the skin facing surface, and in suspension in the liquid."}}}
{"smiles": "CC(=O)O.CC(=O)O.NC(=N\\CCCCCC/N=C(N)/N=C(\\N)Nc1ccc(Cl)cc1)/N=C(\\N)Nc1ccc(Cl)cc1", "note": "[CHAc, chlorhexidine acetate, reference compound]", "values": [{"measurement": "Instant dissolution % Released from silicone after 3 h", "setting": "[1]", "value": 28, "unit": "%"}, {"measurement": "Short time dissolution Additional % released from silicone after additional 21 h", "setting": "[1]", "value": 11, "unit": "%"}]}
{"smiles": "O=S(=O)([O-])[O-].[Ag+].[Ag+]", "note": "[Silver sulfate, silver sulfate]", "values": [{"measurement": "MBC", "setting": "[2]", "value": 5000, "unit": "µM"}, {"measurement": "MBC", "setting": "[3]; 24 h", "value": 160, "unit": "µM"}, {"measurement": "MBC", "setting": "S. aureus ATCC 6538; 24 h", "value": 310, "unit": "µM"}, {"measurement": "log reduction from inoculum size", "setting": "Staphylococcus aureus", "value": "< 4", "unit": "log"}]}
{"smiles": "N=C(NCCCCCCNC(=N)NC(=N)Nc1ccc(Cl)cc1)NC(=N)Nc1ccc(Cl)cc1", "note": "[CHP, chlorhexidine phosphate]", "values": [{"measurement": "MBC", "setting": "[2]; ATCC10231", "value": 26, "unit": "µM"}, {"measurement": "times more silver than chlorhexidine phosphate required to kill Candida albicans", "setting": "[2]; ratio silver vs chlorhexidine phosphate", "value": "up to 190 times"}, {"measurement": "MBC", "setting": "[3]; Pseudomonas aeruginosa, ATCC9027, 24 h", "value": 26, "unit": "µM"}, {"measurement": "MBC", "setting": "S. aureus ATCC 6538; Staphylococcus aureus, ATCC6538, 24 h", "value": 7, "unit": "µM"}, {"measurement": "Log count", "setting": "[4]; CHP 37 uM (sample 1)", "value": 4.4}, {"measurement": "Log reduction", "setting": "[4]; CHP 37 uM (sample 1)", "value": 5.5}, {"measurement": "Log count", "setting": "[4]; CHP 75 uM (sample 2)", "value": 3.9}, {"measurement": "Log reduction", "setting": "[4]; CHP 75 uM (sample 2)", "value": 6.1}, {"measurement": "Log count", "setting": "[4]; CHP 150 uM (sample 3)", "value": 4.1}, {"measurement": "Log reduction", "setting": "[4]; CHP 150 uM (sample 3)", "value": 5.9}, {"measurement": "log reduction of biofilms vs FDA requirement", "setting": "[4]; CHP solutions of 37 μM, 75 μM, 150 μM", "value": "> 4"}, {"measurement": "elimination of microorganism on the silicone surface and in the solution", "setting": "[5]; prototype sprayed at 45 μg/cm^2", "value": "full elimination"}, {"measurement": "elimination of microorganism on the silicone surface and in the solution", "setting": "[5]; prototype sprayed at 75 μg/cm^2", "value": "full elimination"}, {"measurement": "Instant dissolution % Released from silicone after 3 h", "setting": "[1]", "value": 100, "unit": "%"}, {"measurement": "Total released in 24 h", "setting": "[1]", "value": 100, "unit": "%"}]}
{"smiles": "N=C(NCCCCCCNC(=N)NC(=N)Nc1ccc(Cl)cc1)NC(=N)Nc1ccc(Cl)cc1.O=C(O)[C@H](O)[C@@H](O)[C@H](O)[C@H](O)CO.O=C(O)[C@H](O)[C@@H](O)[C@H](O)[C@H](O)CO", "note": "[CHG, chlorhexidine gluconate]", "values": [{"measurement": "MBC", "setting": "[2]", "value": 60, "unit": "µM"}, {"measurement": "MBC", "setting": "[3]; 24 h", "value": 520, "unit": "µM"}, {"measurement": "MBC", "setting": "S. aureus ATCC 6538; 24 h", "value": 30, "unit": "µM"}]}
